From patent publication US12576129B2, “Anthelmintic compositions and methods” (priority 2016, dated 2026)
≈ marks a conversion by molar mass, not a printed value. Like-named read-outs stand apart in the source and are kept apart here.

Legend:
BaCC [1] = test: Carvacrol wash protocols: alive bacteria (CFU) after treatment; format: cell-based, Bacillus thuringiensis
Procedure: To reduce carvacrol residue in the final product, we tested different strategies. In order to reduce the carvacrol residue in the final IBaCC product, first the total amount of carvacrol was reduced by concentrating the cultures before carvacrol treatment. The cultures were centrifuged, and the pellets were re-suspended in sterile distilled water in half or one fourth of the original culture volume. Then, carvacrol was added at 1 mg/mL concentration. Second, carvacrol was removed from the culture by increasing the solubility of carvacrol in the water phase. […] As such, 5% and 15% of ethanol water was used in the washing steps following the IBaCC incubation with carvacrol. Another strategy employed was to increase the volume of distilled water during the washing steps to remove more carvacrol per wash step (for instance, only 25 mg carvacrol can be solubilized with 20 mL of water while 50 mg carvacrol can be solubilized with 40 mL of water.) Lastly, since the temperature affects carvacrol solubility, the incubation and washing steps were carried out at room temperature instead of 4° C. The positive control sample was treated with 1 mg/mL carvacrol without concentrating the culture prior to carvacrol treatment, incubated at 4° C., washed with 1M NaCl once and distilled water twice using 1:1 culture to wash volume ratio. No terpene control sample received water instead of carvacrol, but the incubation and washing steps were carried out in the same manner as the positive control. BaCC culture was grown in 3× LB for 48 hours, and 40 mL of BaCC culture was used for each condition. After washes, the culture was concentrated 20 times. Samples were plated for CFU/mL analysis as described earlier, and carvacrol residue was assessed by HPLC as follows.

BaCC [2] = test: Minimum inhibitory concentration of terpenes against BaCC (broth microdilution); format: cell-based; details: Bacillus thuringiensis; 24 h at 30° C. in LB; no absorbance increase; read-out: MIC μg/mL (100)
Procedure: Three terpenes were tested against BaCC including: carvacrol, geraniol and farnesol, by using the broth microdilution method as described in Agaisse and Lereclus, J. Bacteriol. 176, 4734-4741, 1994 and Agaisse and Lereclus, Mol. Microbiol. 13, 97-107, 1994 with some modifications. Briefly, BaCC from a single colony was grown in 5 mL of LB medium supplemented with 10 μg/mL erythromycin+200 μg/mL kanamycin overnight (O.D. (600) of 4.8, 2.3×10^7 CFU/mL). Terpene solutions were prepared at 1 mg/mL in LB. One hundred μL of two-fold serial dilutions of each terpene in LB were prepared in 96-well microtiter plates over the range of 1000 to 3.9 μg/mL in triplicate. LB without terpenes was used as a negative control. BaCC culture was diluted 100 times, and 100 μL of BaCC culture was added to the wells. Absorbance at 600 nm was recorded before and after the incubation to monitor bacterial growth. The MICs were determined after incubation for 24 h at 30° C. without shaking.

E. coli = test: CFU of E. coli after carvacrol treatment; format: cell-based, Escherichia coli; details: 1 mg/mL carvacrol for 15 minutes
Procedure: Bioactivity of carvacrol-treated Crystal-E. coli on C. elegans. Escherichia coli cells expressing nematicidal Crystal protein or empty vector were treated for 15 minutes with 1 mg/mL carvacrol. The cells were washed in sterile water 3 times. CFUs were determined for untreated and carvacrol-treated cells by serial dilution plating on LB plates. In addition, C. elegans nematode L4 hermaphrodites were fed overnight 1.8 ×10^7 cells/mL of E. coli untreated or carvacrol-treated, Crystal expressing and empty vector (4 conditions) at 25° C. for 16 hr.

[3] = cited from earlier work
BaCC [4] = test: Time to kill: CFU/mL of BaCC after terpene treatment; format: cell-based, Bacillus thuringiensis
Procedure: In order to determine which terpene kills BaCC in the shortest amount of time, we incubated 5 mL of BaCC culture with three terpenes at 1 mg/mL at 4° C. for 1, 2, 3 and 5 hours. No terpene control and no bacteria controls were carried out simultaneously. After incubation with terpenes, samples were centrifuged and the pellets were washed with 5 mL of 1M NaCl once and 5 mL of sterile distilled water twice in order to remove the terpenes. The pellets were re-suspended in the original volume and plated on LB agar with kanamycin and erythromycin. Plates were incubated overnight at 30° C.; the next day, the number of colonies on the plates were enumerated and colony forming units (CFU)/mL calculated.
To assess terpene killing at shorter time points, BaCC culture was grown in 3× LB for 48 h as described above and 60 ml of cultures were aliquoted in sterile tubes. Carvacrol and geraniol were added to the final concentration of 1 mg/mL, and the tubes were placed on a rotator at 4° C. for 15 minutes. The negative control was prepared using sterile water instead of terpenes. At the end of the incubation period, the tubes were centrifuged at 2000× g for 10 minutes and pellets washed with 60 ml of 1 M NaCl once and washed with 60 mL of sterile distilled water twice. Pellets were re-suspended in 1.2 mL of sterile distilled water to concentrate the culture 50 times. Concentrated terpene treated and control samples were plated on LB agar plates containing kanamycin and erythromycin and incubated overnight at 30° C. The number of colonies were counted the next day and CFU/mL calculated for each time point.

[5] = Concentrated 2X = 20 ml before adding carvacrol (1 mg/mL)
[6] = Concentrated 4X = 10 ml before adding carvacrol (1 mg/mL)
[7] = Control: 4C, no concentration, 1:1 culture to wash volume (1 mg/mL carvacrol)
[8] = Incubated and washed at room temperature
[9] = Wash volume increased 2X (e.g., 40 ml wash for 20 ml culture)
[10] = Washes were done with 5% ethanol in water
[11] = Washes were done with 15% ethanol in water

Cc1ccc(C(C)C)cc1O [Carvacrol, carvacrol]
Number of alive bacteria in 1 ml 20X concentrate (BaCC [1]; [5]): 0 | Number of alive bacteria in 1 ml culture (BaCC [1]; [5]): 0 | Number of alive bacteria in 1 ml 20X concentrate (BaCC [1]; [6]): 0 | Number of alive bacteria in 1 ml culture (BaCC [1]; [6]): 0 | Number of alive bacteria in 1 ml 20X concentrate (BaCC [1]; [7]): 0 | Number of alive bacteria in 1 ml culture (BaCC [1]; [7]): 0 | Number of alive bacteria in 1 ml 20X concentrate (BaCC [1]; [8]): 0 | Number of alive bacteria in 1 ml culture (BaCC [1]; [8]): 0 | Number of alive bacteria in 1 ml 20X concentrate (BaCC [1]; [9]): 140 | Number of alive bacteria in 1 ml culture (BaCC [1]; [9]): 7 | Number of alive bacteria in 1 ml 20X concentrate (BaCC [1]; [10]): 0 | Number of alive bacteria in 1 ml culture (BaCC [1]; [10]): 0 | Number of alive bacteria in 1 ml 20X concentrate (BaCC [1]; [11]): 160 | Number of alive bacteria in 1 ml culture (BaCC [1]; [11]): 8 | MIC (BaCC [2]): 125 µg/mL (≈ 832 µM) | killing of E. coli (CFUs) (E. coli): effectively killed the E. coli | log P octanol/water [3]: 3.64 | amount that can be solubilized ([3]; with 20 mL of water): 25 mg | amount that can be solubilized ([3]; with 40 mL of water): 50 mg | CFU/ml (1 mg/mL terpene treatment for time indicated) (BaCC [4]; 15 min at 4° C., culture concentrated 50 times (50X conc.) before plating): 0 CFU/ml | CFU/ml (1 mg/mL terpene treatment for time indicated) (BaCC [4]; 1 h at 4° C.): 0 CFU/ml | CFU/ml (1 mg/mL terpene treatment for time indicated) (BaCC [4]; 3 h at 4° C.): 0 CFU/ml | CFU/ml (1 mg/mL terpene treatment for time indicated) (BaCC [4]; 5 h at 4° C.): 0 CFU/ml | killing of BaCC (spo0A- cells expressing Cry5B) (BaCC [4]; carvacrol treatment): complete killing of the Bacilli | comparison of antimicrobial efficiency among the 3 terpenes (BaCC [4]; carvacrol, geraniol, farnesol against BaCC): most efficient, killing the quickest and at the lowest concentration | CFU/ml (1 mg/mL terpene treatment for time indicated) (BaCC [4]; time 0): 2.31 × 10^7 CFU/ml
